Numbers after ± are expanded uncertainties.
Assay: xn = mol fraction of the nth substance listed
Conditions: Gas, Buoyancy - hydrostatic balance with magnetic suspension - two sinkers

C [methane] + CCC
Conditions | mass density [kg/m3]
273.15 K, 497.16 kPa, x1 = 0.5069 | 6.8601 ± 0.0049
273.15 K, 500.89 kPa, x1 = 0.7498 | 5.2229 ± 0.0037
273.15 K, 503.23 kPa, x1 = 0.5069 | 6.9481 ± 0.0049
273.15 K, 506.93 kPa, x1 = 0.5069 | 7.0019 ± 0.0049
273.15 K, 537.7 kPa, x1 = 0.2658 | 9.4417 ± 0.0045
273.15 K, 542.15 kPa, x1 = 0.2658 | 9.5274 ± 0.0045
273.15 K, 556.33 kPa, x1 = 0.5069 | 7.7247 ± 0.0053
273.15 K, 562.21 kPa, x1 = 0.2658 | 9.9157 ± 0.0046
273.15 K, 568.57 kPa, x1 = 0.2658 | 10.0392 ± 0.0046
273.15 K, 598.52 kPa, x1 = 0.2658 | 10.627 ± 0.0048
273.15 K, 607.75 kPa, x1 = 0.5069 | 8.4837 ± 0.0055
273.15 K, 608.84 kPa, x1 = 0.2658 | 10.8307 ± 0.0048
273.15 K, 612.13 kPa, x1 = 0.5069 | 8.5493 ± 0.0055
273.15 K, 615.59 kPa, x1 = 0.2658 | 10.9644 ± 0.0048
273.15 K, 619.26 kPa, x1 = 0.5069 | 8.6551 ± 0.0055
273.15 K, 625.49 kPa, x1 = 0.5069 | 8.7476 ± 0.0062
273.15 K, 631.66 kPa, x1 = 0.5069 | 8.8402 ± 0.0059
273.15 K, 635.08 kPa, x1 = 0.2658 | 11.3537 ± 0.0049
273.15 K, 652.39 kPa, x1 = 0.2658 | 11.7011 ± 0.0049
273.15 K, 659.32 kPa, x1 = 0.2658 | 11.8408 ± 0.005
273.15 K, 701.31 kPa, x1 = 0.5069 | 9.8889 ± 0.0061
273.15 K, 705.87 kPa, x1 = 0.5069 | 9.9584 ± 0.0068
273.15 K, 711.71 kPa, x1 = 0.5069 | 10.0475 ± 0.0061
273.15 K, 781.92 kPa, x1 = 0.5069 | 11.1241 ± 0.007
273.15 K, 803.19 kPa, x1 = 0.5069 | 11.4547 ± 0.0086
273.15 K, 829.52 kPa, x1 = 0.5069 | 11.8643 ± 0.008
273.15 K, 888.98 kPa, x1 = 0.5069 | 12.8024 ± 0.008
273.15 K, 899.81 kPa, x1 = 0.7498 | 9.5966 ± 0.0051
273.15 K, 907.76 kPa, x1 = 0.5069 | 13.1006 ± 0.008
273.15 K, 930.25 kPa, x1 = 0.5069 | 13.4618 ± 0.0079
273.15 K, 971.91 kPa, x1 = 0.5069 | 14.1337 ± 0.0092
273.15 K, 986.2 kPa, x1 = 0.5069 | 14.3651 ± 0.009
273.15 K, 1000.4 kPa, x1 = 0.7498 | 10.7338 ± 0.0056
273.15 K, 1009.5 kPa, x1 = 0.5069 | 14.7469 ± 0.0091
273.15 K, 1015 kPa, x1 = 0.7498 | 10.9019 ± 0.0056
273.15 K, 1015.5 kPa, x1 = 0.5069 | 14.8424 ± 0.0091
273.15 K, 1041.7 kPa, x1 = 0.5069 | 15.2749 ± 0.0091
273.15 K, 1299.2 kPa, x1 = 0.7498 | 14.1894 ± 0.0059
273.15 K, 1500.9 kPa, x1 = 0.7498 | 16.5996 ± 0.0063
273.15 K, 1510.9 kPa, x1 = 0.7498 | 16.7231 ± 0.0063
273.15 K, 1700.4 kPa, x1 = 0.7498 | 19.0432 ± 0.0066
273.15 K, 1998.9 kPa, x1 = 0.7498 | 22.8321 ± 0.0072
273.15 K, 1999.7 kPa, x1 = 0.7498 | 22.8429 ± 0.0072
273.15 K, 2002 kPa, x1 = 0.7498 | 22.875 ± 0.0072
273.15 K, 2303.6 kPa, x1 = 0.7498 | 26.8673 ± 0.0099
293.14 K, 149.9 kPa, x1 = 0.2658 | 2.2913 ± 0.0033
293.14 K, 469.3 kPa, x1 = 0.2658 | 7.4652 ± 0.0038
293.14 K, 568.75 kPa, x1 = 0.2658 | 9.168 ± 0.0044
293.14 K, 1056.3 kPa, x1 = 0.2658 | 18.3225 ± 0.0065
293.14 K, 1105.7 kPa, x1 = 0.2658 | 19.3404 ± 0.0066
293.14 K, 1807.2 kPa, x1 = 0.5069 | 25.9503 ± 0.014
293.15 K, 258.04 kPa, x1 = 0.2658 | 3.9961 ± 0.0035
293.15 K, 355.08 kPa, x1 = 0.2658 | 5.5657 ± 0.0037
293.15 K, 393.88 kPa, x1 = 0.5069 | 4.9714 ± 0.0043
293.15 K, 613.82 kPa, x1 = 0.5069 | 7.8849 ± 0.0052
293.15 K, 655.65 kPa, x1 = 0.2658 | 10.6963 ± 0.0046
293.15 K, 803.74 kPa, x1 = 0.5069 | 10.489 ± 0.0069
293.15 K, 857.4 kPa, x1 = 0.2658 | 14.4071 ± 0.0054
293.15 K, 955.25 kPa, x1 = 0.2658 | 16.2977 ± 0.0064
293.15 K, 1006.2 kPa, x1 = 0.5069 | 13.3634 ± 0.0087

From the NIST ThermoML archive (doi:10.1021/je500792x)
